Measured values as given in patent US20250129051A1, “PARP1 INHIBITORS AND USES THEREOF” (Gilead Sciences, Inc., priority 2023, published 2025).
pIC50: −log10 of the molar value.

Tests used:
Assay type in all cases: cell-based
DLD-1 parental cells = test: Cell growth inhibition assay (CellTiter-Glo), DLD-1 parental; details: Homo sapiens, 168 h, 7 days, CellTiter Glo 2.0
Text: (§1) The objective of this study was to evaluate the effect of a compound disclosed herein on cell proliferation through the cell viability assay in DLD-1 BRCA2 (−/−) and parental isogenic pair and MDA-MB-436 (mutated BRCA1) cell lines. The CellTiter-Glo (CTG) based cell viability assay was designed to determine the number of viable cells in the culture because of compound effect, by quantifying adenosine triphosphate (ATP), which indicates the presence of metabolically active cells.
(§2) DLD-1 BRCA2 (−/−) and parental isogenic pair were cultured in RPMI 1640 supplemented with 10% fetal bovine serum (FBS), and MDA-MB-436 cells were cultured in Dulbecco's Modified Eagle Medium (DMEM) supplemented with 10% FBS. Both were cultured at 37° C. with 5% CO2. Compounds were distributed to the 384 well plate (Corning, 3764) using Echo acoustic liquid handler to form a 1:3 serially diluted final concentration with top dose of 10 or 30 μM. The cells were seeded into the plate in the density of 50 cells/well (DLD-1 parental), 200 cells/well (DLD-1 BRCA2−/−), or 500 cells/well (MDA-MB-436). After a short spin, the cells were cultured in a well moisturized incubator at 37° C. with 5% CO2 for 7 days without disturbance. The cell viability was measured by CellTiter Glo 2.0 assay kit (Promega, G9243), and growth inhibition rate was calculated and plotted against final compound concentration, and the data were fitted in Xfit to generate IC50.

DLD-1 BRCA2 (−/−) cells = test: Cell growth inhibition assay (CellTiter-Glo), DLD-1 BRCA2 (−/−); details: Homo sapiens, 168 h, 7 days, CellTiter Glo 2.0
Text: as §1, §2

[1] = tested on: MDA-MB-436 (mutated BRCA1) cells; test: Cell growth inhibition assay (CellTiter-Glo), MDA-MB-436; details: Homo sapiens, 168 h; MDA-MB-436 cells, 7 days, CellTiter Glo 2.0
Text: as §1, §2

Structure (SMILES) | pIC50 (DLD-1 parental cells) | pIC50 (DLD-1 BRCA2 (−/−) cells) | pIC50 [1]
Cc1nc2ccc(CN3C[C@H](Oc4ccc(C(=O)NC5CC5)nc4F)[C@H]3C)c(F)c2[nH]c1=O [Compound 6, N-cyclopropyl-6-fluoro-5-(((2R,3S)-1-((5-fluoro-2-methyl-3-oxo-3,4-dihydroquinoxalin-6-yl)methyl)-2-methylazetidin-3-yl)oxy) picolinamide] | < 5.00 | 7.55 | 8.05
Cc1nc2ccc(CN3C[C@H](Oc4ccc(C#N)nc4F)[C@H]3C)c(F)c2[nH]c1=O [Compound 7, 6-fluoro-5-(((2R,3S)-1-((5-fluoro-2-methyl-3-oxo-3,4-dihydroquinoxalin-6-yl)methyl)-2-methylazetidin-3-yl)oxy) picolinonitrile] | < 5.00 | < 6.00 | < 6.00
CNC(=O)c1ccc(O[C@H]2CN(Cc3ccc4nc(C)c(=O)[nH]c4c3F)[C@@H]2C)c(F)n1 [Compound 5, 6-fluoro-5-(((2R,3S)-1-((5-fluoro-2-methyl-3-oxo-3,4-dihydroquinoxalin-6-yl)methyl)-2-methylazetidin-3-yl)oxy)-N-methylpicolinamide] | < 5.00 | 7.17 | 7.64
